Data on 20 molecules can be found in US20240217968A1, “PHARMACEUTICAL COMPOUND” (DUKE STREET BIO LIMITED, priority 2021, published 2024).

In general, IC50 refers to the concentration that gives 50% inhibition.

The experiment concerns the target T1, recombinant human Flag-tagged PARP7 (amino acids 456-657) (Homo sapiens, UniProt Q7Z3E1).
T1 construct: recombinant human Flag-tagged PARP7 (amino acids 456-657)
T1 sequence (Q7Z3E1 456-657): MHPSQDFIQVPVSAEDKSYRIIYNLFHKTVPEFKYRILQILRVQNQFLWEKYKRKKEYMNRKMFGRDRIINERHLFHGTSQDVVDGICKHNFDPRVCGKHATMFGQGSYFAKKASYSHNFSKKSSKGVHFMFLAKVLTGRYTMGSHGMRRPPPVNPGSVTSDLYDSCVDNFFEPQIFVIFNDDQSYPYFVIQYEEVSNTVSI
Kind of experiment: PARP7 biochemical DELFIA assay (auto-MARylation). The conditions noted are these: DELFIA readout, IC50 class. In a few lines:
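Flag-PARP7 (456-657), 12.5-37.5 nM stock, captured on anti-FLAG wells, preincubated 30 min with compound, then auto-MARylated with biotin-NAD+ (15 μM stock) in HEPES pH 7.5/NaCl/DTT/BSA/Tween for 2-3 h at room temperature. NAD+ quench; Eu-streptavidin DELFIA read, Ex337/Em620 nm.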
On to `CC(COCCC(=O)N1CCN(c2ncc(C#N)cn2)CC1)n1nc(C(F)F)c2c(=O)[nH]ncc21` (single isomer, unassigned) [Compound 491], for which the IC50 was no more than 100 nM.

`CC(COCC(=O)N(C)C1CCN(c2ncc(C(F)(F)F)cn2)CC1)n1nc(C(F)(F)F)c2c(=O)[nH]ncc21` (single isomer, unassigned) [Compound 461, N-methyl-2-(2-(4-oxo-3-(trifluoromethyl)-4,5-dihydro-1H-pyrazolo[3,4-d]pyridazin-1-yl)propoxy)-N-(1-(5-(trifluoromethyl)pyrimidin-2-yl)piperidin-4-yl) acetamide]: the IC50 is no more than 100 nM.

`O=C(CCOCCc1ccc(F)c2c(=O)[nH]ncc12)N1CCN(c2ncc(C(F)(F)F)cn2)CC1` [Compound 158]: the IC50 was no more than 100 nM.

In the case of `CC(COCCC(=O)N1CCN(c2ccc(C#N)cn2)CC1)n1nc(C(F)(F)F)c2c(=O)[nH]ncc21` (single isomer, unassigned) [Compound 270], the IC50 was no more than 100 nM.

As to `CC(COCCC(=O)N1CCN(c2ncc(C(F)(F)F)cn2)CC1)c1cc(Cl)cc2c(=O)[nH]ncc12` (centres unmarked) [Compound 163], the IC50 was no more than 100 nM.

As to `N#Cc1cnc(N2CCN(C(=O)CCOCCn3nc(C(F)(F)F)c4c(=O)[nH]ncc43)CC2)s1` [Compound 502], the IC50 was no more than 100 nM.

For the molecule `O=C(CCOCCn1ncc2c(=O)[nH]ncc21)N1CCN(c2ncc(Cl)cn2)CC1` [Compound 147], the IC50 is no more than 100 nM.

As for `CC(COCCC(=O)N1CCN(c2ccc(C(F)F)cn2)CC1)n1nc(C(F)(F)F)c2c(=O)[nH]ncc21` (centres unmarked) [Compound 342], the IC50 is no more than 100 nM.

Take `O=C(CCOCCc1cccc2c(=O)[nH]ncc12)N1CCN(c2ncc(C(F)(F)F)cn2)C(CO)C1` (centres unmarked) [Compound 148]: the IC50 is no more than 100 nM.

Consider `O=C(OCCCCc1cccc2c(=O)[nH]ncc12)N1CCN(c2ncc(C(F)(F)F)cn2)CC1` [Compound 165], for which the IC50 was no more than 100 nM.

As to `CC(COCCC(=O)N1CCN(c2ncc(C#N)cn2)CC1)n1cc(C(F)F)c2c(=O)[nH]ncc21` (single isomer, unassigned) [Compound 439], the IC50 was no more than 100 nM.

Turning to `O=C(CCOCCc1cccc2c(=O)[nH]cnc12)N1CCN(c2ncc(C(F)(F)F)cn2)CC1` [Compound 16], the IC50 was 100 to 1000 nM.

Consider `CC(COCCC(=O)N1CCN(c2ncc(C(F)(F)F)cn2)CC1)n1cc(C(F)F)c2c(=O)[nH]ncc21` (single isomer, unassigned) [Compound 396, 3-(difluoromethyl)-1-(1-(3-oxo-3-(4-(5-(trifluoromethyl)pyrimidin-2-yl)piperazin-1-yl)propoxy)propan-2-yl)-1,5-dihydro-4H-pyrrolo[2,3-d]pyridazin-4-one], for which the half-inhibitory concentration (IC50) was no more than 100 nM.

Regarding `CC(COCCC(=O)N1CCN(c2ccc(C#N)cn2)CC1)c1cccc2c(=O)[nH]ncc12` (single isomer, unassigned) [Compound 71], the IC50 was no more than 100 nM.

Turning to `N#Cc1ccc(N2CCN(C(=O)c3cccc(Cc4cccc5c(=O)[nH]ncc45)c3)CC2)nc1` [Compound 1, 6-(4-(3-((1-oxo-1,2-dihydrophthalazin-5-yl)methyl)benzoyl)piperazin-1-yl)nicotinonitrile], the IC50 was no more than 100 nM.

As to `N#Cc1ccc(N2CCN(C(=O)c3cccc(OCc4cccc5c(=O)[nH]ncc45)c3)CC2)nc1` [Compound 93], the IC50 fell in the range of 1000 to 10000 nM.

Take `CN(CCOCC(=O)N1CCN(c2ncc(C(F)(F)F)cn2)CC1)c1cccc2c(=O)[nH]ncc12` [Compound 43]: the IC50 lay within 100 to 1000 nM.

On to `CC(COCCC(=O)N1CCN(c2nc(C#N)co2)CC1)n1nc(C(F)(F)F)c2c(=O)[nH]ncc21` (single isomer, unassigned) [Compound 319], for which the half-maximal inhibitory concentration (IC50) is no more than 100 nM.

In the case of `CCC(COCCC(=O)N1CCN(c2ncc(C(F)(F)F)cn2)CC1)n1cc(C(F)(F)F)c2c(=O)[nH]ncc21` (single isomer, unassigned) [Compound 338], the IC50 was no more than 100 nM.

As to `CC(COCCC(=O)N1CCN(c2ccc(C(F)F)cn2)CC1)n1nc(C(F)(F)F)c2c(=O)[nH]ncc21` (centres unmarked) [Compound 343], the IC50 is no more than 100 nM.
